Test results published in publication PMC6983046, “Meroterpenoids from the Fungus Ganoderma sinensis and First Absolute Configuration Clarification of Zizhine H” (Molecules, 2019).

What was measured:
[1] = system: BGC-823: human gastric cancer cells; assay: Cell viability (CCK8) assay, BGC-823; assay type: cell-based; conditions: BGC-823 cells; for IC50: CCK8, 48 h; for cytotoxic activity (cells sensitive to compound), BGC-823: result in words
Experimental: (§1) All cell lines were purchased from the Cell Bank of China Science Academy (Shanghai, China) and maintained in Dulbecco’s Modified Eagle Medium (DMEM) supplemented with 10% fetal bovine serum and 100 U/mL penicillin-streptomycin, and incubated at 37 °C in an atmosphere of 5% CO2. Cell viability was evaluated by the CCK8 assay kit (Dojindo Laboratories, Tokyo, Japan) according to the manufacturer’s instructions. Exponentially growing cells were seeded at 2–8 × 10^3 cells per well in 96-well culture plates for 24 h. Cells were exposed to increasing concentrations (0–80 μM) of 4, 5, 6, or 5-FU for 48 h. The equal volume of DMSO was used as the solvent control. CCK8 solution (10 μL) was added to each well and incubated for another 1–4 h. Light absorbance of the solution was measured at 450 nm (Epoch 2; BioTek Instruments, Inc. Winooski, VT, USA). The IC50 values were calculated using the GraphPad prism 7 and analyzed by fitting a curve using nonlinear regression. page 53: Figure S63. The calculated and the experimental ECD spectra of 5 and 6. Figure S64. Cytotoxic effects of compound-4,compound-5, compound-6 and 5-FU on human cancer cells (A, B, C) and normal cells (D) Cells were treated with various concentrations of compound-4,compound-5, compound-6 and 5-FU for 48 h. Cytotoxic effect of the compounds was determined by CCK8 assay. Percentages of viable cells were calculated by comparing treated and solvent control cells. Data are the mean ± S.D. of three replicates. […]

[2] = system: KYSE30: human esophageal cancer cells; assay: Cell viability (CCK8) assay, KYSE30; assay type: cell-based; conditions: for cytotoxic activity (cells sensitive to compound), KYSE30: result in words
Experimental: as §1

[3] = system: A549: human lung cancer cells; assay: Cell viability (CCK8) assay, A549; assay type: cell-based; conditions: for IC50: CCK8, 48 h
Experimental: as §1

[4] = Cell viability (CCK8) assay, HDF normal cells; assay type: cell-based, human; conditions: human, HDF cells (normal human embryonic lung fibroblasts), CCK8, 48 h
Experimental: as §1

[5] = system: HDF: normal human embryonic lung fibroblasts; assay: Cell viability (CCK8) assay, HDF normal cells; assay type: cell-based; conditions: CCK8, 48 h
Experimental: as §1

[6] = Homo sapiens, KYSE-30, CCK8, 48 h

SMILES	IC50 ([1]; Homo sapiens) [µM]	IC50 [2, 6] [µM]	IC50 ([3]; Homo sapiens, A549, 48 h) [µM]	IC50 [1] [µM]	IC50 ([2]; CCK8, 48 h) [µM]	IC50 [3] [µM]	IC50 at 48 h [4] [µM]	cytotoxic activity (cells sensitive to compound), BGC-823 [1]	cytotoxic activity (cells sensitive to compound), KYSE30 [2]	IC50 [5] [µM]	cytotoxic activity (cells sensitive to compound), A549 ([3]; result in words)
C/C(=C\CC/C(=C/CC/C(=C/Cc1cc(O)ccc1O)C(=O)O)CO)COC(=O)/C=C/c1ccc(O)cc1 [Compound 3, (2Z,5Z,9E)-2-(2-(2,5-dihydroxyphenyl)ethylidene)-6-(hydroxymethyl)-11-(((E)-3-(4-hydroxyphenyl)acryloyl)oxy)-10-methylundeca-5,9-dienoic acid]	> 160	> 160	> 160	–	–	–	> 160	–	–	–	–
C/C(=C\C[C@H](O)/C(=C/CCC1=C[C@H](c2cc(O)ccc2O)OC1=O)CO)COC(=O)/C=C/c1ccc(O)cc1 [Compound 5, (E)-(S,2E,6E)-9-((R)-5-(2,5-dihydroxyphenyl)-2-oxo-2,5-dihydrofuran-3-yl)-5-hydroxy-6-(hydroxymethyl)-2-methylnona-2,6-dien-1-yl 3-(4-hydroxyphenyl)acrylate]	59.2 ± 2.73	76.3 ± 1.93	> 160	–	–	–	> 160	sensitive	sensitive	–	–
C/C(=C\C[C@H](O)/C(=C/CCC1=C[C@@H](c2cc(O)ccc2O)OC1=O)CO)COC(=O)/C=C/c1ccc(O)cc1 [Compound 6, (E)-(S,2E,6E)-9-((S)-5-(2,5-dihydroxyphenyl)-2-oxo-2,5-dihydrofuran-3-yl)-5-hydroxy-6-(hydroxymethyl)-2-methylnona-2,6-dien-1-yl 3-(4-hydroxyphenyl)acrylate]	64.25 ± 0.37	85.4 ± 2.82	> 160	–	–	–	> 160	sensitive	sensitive	–	–
O=c1[nH]cc(F)c(=O)[nH]1 [Compound 5-FU, reference compound]	–	–	–	37.7 ± 1.87	8.43 ± 0.19	35 ± 2.42	–	–	–	51.1 ± 2.43	–
COC(=O)/C(=C\C(=O)c1cc(O)ccc1O)CC/C=C(\CO)CC/C=C(\C)COC(=O)/C=C/c1ccc(O)cc1 [Compound 4, (2Z,5Z,9E)-methyl 2-(2-(2,5-dihydroxyphenyl)-2-oxoethylidene)-6-(hydroxymethyl)-11-(((E)-3-(4-hydroxyphenyl)acryloyl)oxy)-10-methylundeca-5,9-dienoate]	> 160	> 160	63.4 to 80.8	–	–	72.1 ± 8.7	> 160	–	–	–	sensitive
C/C(=C/CC/C(=C/C(=O)c1cc(O)ccc1O)C(=O)O)CO [Compound 7, (2Z,5Z)-2-(2-(2,5-dihydroxyphenyl)-2-oxoethylidene)-7-hydroxy-6-methylhept-5-enoic acid]	> 160	> 160	> 160	–	–	–	> 160	–	–	–	–

Further lines, with some results ahead:

IC50 ([1]; Homo sapiens) [µM]	IC50 [2, 6] [µM]	IC50 ([3]; Homo sapiens, A549, 48 h) [µM]	IC50 [1] [µM]	IC50 ([2]; CCK8, 48 h) [µM]	IC50 [3] [µM]	SMILES	IC50 at 48 h [4] [µM]	cytotoxic activity (cells sensitive to compound), BGC-823 [1]	cytotoxic activity (cells sensitive to compound), KYSE30 [2]	IC50 [5] [µM]	cytotoxic activity (cells sensitive to compound), A549 ([3]; result in words)
> 160	> 160	> 160	–	–	–	CC(=CCCC1=CCC[C@](CC(=O)c2cc(O)ccc2O)(C(=O)O)OC1)CO [(+)-1, (S,E)-2-(2-(2,5-dihydroxyphenyl)-2-oxoethyl)-6-(5-hydroxy-4-methylpent-3-en-1-yl)-2,3,4,7-tetrahydrooxepine-2-carboxylic acid]	> 160	–	–	–	–
> 160	> 160	> 160	–	–	–	C/C(=C\CCC1=CCC[C@@](CC(=O)c2cc(O)ccc2O)(C(=O)O)OC1)COC(=O)/C=C/c1ccc(O)cc1 [(−)-2, (R)-2-(2-(2,5-dihydroxyphenyl)-2-oxoethyl)-6-((E)-5-(((E)-3-(4-hydroxyphenyl)acryloyl)oxy)-4-methylpent-3-en-1-yl)-2,3,4,7-tetrahydrooxepine-2-carboxylic acid]	> 160	–	–	–	–
> 160	> 160	> 160	–	–	–	CC(=CCCC1=CCC[C@@](CC(=O)c2cc(O)ccc2O)(C(=O)O)OC1)CO [(−)-1, (R,E)-2-(2-(2,5-dihydroxyphenyl)-2-oxoethyl)-6-(5-hydroxy-4-methylpent-3-en-1-yl)-2,3,4,7-tetrahydrooxepine-2-carboxylic acid]	> 160	–	–	–	–
> 160	> 160	> 160	–	–	–	C/C(=C\CCC1=CCC[C@](CC(=O)c2cc(O)ccc2O)(C(=O)O)OC1)COC(=O)/C=C/c1ccc(O)cc1 [(+)-2, (S)-2-(2-(2,5-dihydroxyphenyl)-2-oxoethyl)-6-((E)-5-(((E)-3-(4-hydroxyphenyl)acryloyl)oxy)-4-methylpent-3-en-1-yl)-2,3,4,7-tetrahydrooxepine-2-carboxylic acid]	> 160	–	–	–	–
